Reference: patent publication EP4553077A1 (Kinoteck Therapeutics Co., Ltd, priority 2022, dated 2024)
Blank lines part the entries; values can stand above or below the compound they belong to.

Assays:
[1] = Human liver microsomes stability test; assay type: in vitro ADME; conditions: human liver microsomes 0.5 mg/mL, compound 1.0 µM
Protocol: Human liver microsomes stability test was performed by co-incubating compounds with human liver microsomes in vitro. Firstly, a 10 mM stock solution of the test compound in DMSO solvent was prepared, and then the compound was diluted with methanol to a 0.15 mM working solution. A certain amount PBS, 12mM MgCl2, human liver microsomes (Corning), and compound working solution were mixed to achieve a compound concentration of 1.0 µM, a human liver microsome concentration of 0.5 mg/mL, and the MgCl2 concentration of 3 mM in the reaction system. A deep well plate was taken, 270 µL microsomal buffer mixture solution was added to each well, and then 30 µL preheated 10 mM NADPH solution was added to initiate the reaction, and it was incubated at 37 °C. At 0, 5, 15, 30, and 60 min of incubation, 200 µL methanol: acetonitrile = 1: 1 containing an internal standard was added to the corresponding well to terminate the reaction. After the reaction was terminated at the last 60 min, the deep well plate was subjected to vortex vibration for 5 min (600 rpm/min), and then centrifugated for 10 min. After centrifugation, the supernatant was taken, and purified water was added at a 1:1 ratio for LC-MS/MS detection, and the peak area ratio of the compound to the internal standard at each time point was obtained, and the peak area ratio of the compound at 5, 15, 30, and 60 min was compared with the peak area ratio at 0 minute to calculate the remaining percentage of the compound at each time point, and T1/2 was calculated using Graphpad 7 software. Table 2 Results of human liver microsomes stability test

Ba/F3-TEL-FGFR2 = Ba/F3-TEL-FGFR2 (Homo sapiens, UniProt P21802+P41212); assay: Cell viability (proliferation inhibition) of Ba/F3 cells, CellTiter Glo; conditions: read-out: Ba/F3 cell FGFR2 (IC50 nM), 72 h
Ba/F3-TEL-FGFR1 = Ba/F3-TEL-FGFR1 (Homo sapiens, UniProt P11362+P41212); assay: as above; conditions: read-out: Ba/F3 cell FGFR1 (IC50 nM), 72 h
Ba/F3-TEL-FGFR3 = Ba/F3-TEL-FGFR3 (Homo sapiens, UniProt P22607+P41212); assay: as above; conditions: read-out: Ba/F3 cell FGFR3 (IC50 nM), 72 h
CYP3A4 = CYP3A4 (Homo sapiens, UniProt P08684); assay: Cytochrome P450 inhibition in human liver microsomes
Protocol: (§3) Preparation of positive control inhibitor and compound working solution: 16 µL inhibitor stock solution or compound stock solution for each CYP subtype were taken and added to 24 µL DMSO. Then, they were diluted gradually three times with diluent to obtain different concentrations of test sample/positive control inhibitor working solution (7 concentrations each except for blank)
(§4) Preparation of liver microsomal working solution: 300 µL human liver microsomes (20.0 mg/mL) was taken and added to 29700 µL PBS and mixed well, and the concentration of the prepared human liver microsomal working solution was 0.200 mg/mL.
(§5) Preparation of 4 x NADPH working solution: A certain weight of NADPH tetrasodium salt was weighted and dissolved to a suitable volume of PBS to obtain NADPH working solution, with a concentration of 8.00 mM.
(§6) Preparation of test sample group working solution: The human liver microsomal working solution was divided into 96 well plates at 796 µL per well, and then 4 µL test sample working solution was added.
(§7) Preparation of positive control group working solution: The human liver microsomal working solution was divided into 96 well plates at 199 µL per well, and then 1 µL positive control inhibitor working solution was added.
(§8) Blank solvent working solution preparation: The human liver microsomal working solution was divided into 96 well plates at 199 µL per well, and then 1 µL DMSO was added.
(§9) (a) 30 µL test sample/positive control inhibitor working solution or 30 µL blank solvent working solution per well were transferred into a 96 well plate, and 15 µL substrate working solution of different enzyme subtypes transferred into each well, and mixed evenly. (b) The above incubation plates and 4 x NADPH working solution were preheated at 37 °C for 5 min. (c) 15 µL preheated 4 × NADPH working solution per well was transferred into the incubation plate, and the reaction initiated, and continued to be incubated at 37 °C. The incubation time is as follows:
(§10) (d) After the reaction time was reached, 180 µL termination solution was added to terminate the reaction. […] (f) After centrifugation, 80 µL supernatant was taken and added to 120 µL ultrapure water, and after it was mixed evenly, LC-MS/MS was used to analyze the metabolites of the probe substrate.

CYP2D6 = CYP2D6 (Homo sapiens, UniProt P10635); assay: as above
Protocol: as §3, §4, §5, §6, §7, §8, §9, §10

A204 cells = assay: Proliferation inhibition, CCK-8 colorimetric method; assay type: cell-based; conditions: Homo sapiens, 72 h
Protocol: (§1) CCK-8 (Bimake/B34304) colorimetric method was used to detect the in vitro proliferation inhibitory effect of compounds on suspended or adherent cells in this experiment. The specific experimental steps were as follows: • 1) Cell plating: SNU16 and A204 tumor cells (cells from Shanghai Institute of Organic Chemistry, Chinese Academy of Sciences) in the logarithmic growth phase were digested and centrifuged for trypan blue counting, and the cells were seeded into a transparent 96 well plate at a density of 4000 cells/100 µ 1/well. […] The test compound and control compound stock solution were diluted with the corresponding culture medium required for cell culture (with or without solvent DMSO) to obtain a series of working solutions, with concentrations of twice the final concentration. The solvent DMSO contents in each concentration group were consistent with that of the solvent control group. The final concentration of A204 cells started at 10 µM and was diluted twice.
(§2) Calculation of cell survival rate: Cell survival rate (%)=[(As-Ac)/(Ab-Ac)] × 100%] (As: experimental well; Ab: Solvent control well; Ac: Blank well).

SNU16 cells = assay: as above; assay type: cell-based; conditions: Homo sapiens, SNU-16, 72 h
Protocol: as §1, §2

[2] = Rat liver cells metabolic stability; assay type: in vitro ADME; conditions: rat liver cells 0.5 × 10^6 cells/mL
Protocol: Test compound and control drug verapamil powder were prepared into […] stock solution using DMSO, and they were diluted with 50% acetonitrile/50% water to 100 µM working solution before use.
• 1) 49.5 mL Williams E Medium and 0.5 mL glutaMAX were mixed as incubation medium. The liver cell resuscitation solution and incubation solution were preheated in a 37 °C water bath for at least 15 min before use. • 2) A tube of liver cells stored at ultra-low temperature was taken and ensured that they remain in a low-temperature frozen state before resuscitation. The liver cells were placed quickly in a 37 °C water bath and shaken gently until all ice crystals were dispersed. • 3) The contents of the liver cells tubes were poured into a centrifuge tube containing 50 mL of resuscitation medium, and they were centrifuged at 100 g for 10 min. After centrifugation, the resuscitation medium was aspirated, and sufficient incubation medium was added to obtain a cell suspension with a cell density of approximately 1.0 × 10^6 cells/mL. • 4) AO/PI staining was used to count liver cells and determine viable cell density, the survival rate of liver cells must be greater than 75%. The liver cell suspension was diluted with incubation medium to a viable cell density of 0.5 × 10^6 cells/mL.
• 1) 198 µL live cell suspension was transferred to a 96 well deep well plate, and the deep well plate was placed on a vortex and preheat in the incubator for 10 min. • 2) 2 µL 100 µM test compound or positive control compound was added to each well for reaction initiation, and the deep well plate was placed back on the incubator vortex. • 3) The incubation plate was placed into the incubator for incubation. 25 µL suspension was taken at 0.5, 15, 30, 60, 90, and 120 min, and 6-fold (150 µL) acetonitrile containing internal standard quencher (100 nM alprazolam, 200 nM caffeine, and 100 nM toluenesulfonylbutamide) was added to a new 96 well plate to terminate the reaction. The plate was vortexed for 5 min and centrifuged at 3220 rpm and 4 °C for 45 min to precipitate the protein. 100 µL of supernatant was transferred to the sample plate, and 100 µL pure water was added and mixed well for UPLC-MS/MS analysis. All incubation systems were conducted in a dual parallel manner.
All data was calculated using Microsoft Excel software. Peak area was detected by extracting ion chromatogram. In vitro half-life (T1/2) and in vitro clearance rate (in µL/min/10^6 cells) of the parent drug were detected by linearly fitting of the natural logarithm of the […] percentage of the parent drug versus time. Table 6 Results of rat liver cell stability test

[3] = Pharmacokinetic test in rats; assay type: in vivo, male SD rats; conditions: rat, plasma, oral gavage administration, 10 mg/kg
Protocol: Rat pharmacokinetic experiments were performed using male SD rats, 180-220g, provided by Beijing Vital River Laboratory Animal Technology Co., Ltd. 3 rats that were fasted overnight were taken, and administered orally by gavage (10 mg/kg). Blood samples were collected before administration, as well as 5, 15, 30 min and 1, 2, 4, 6, 8, 24 h after administration; another 3 rats were taken and administered intravenously (1 mg/kg), blood samples were collected before administration, as well as 5, 15, 30 min and 1, 2, 4, 6, 8, 24 h after administration. Blood sample was centrifuged at 6800g, 2-8 °C for 6 min, and plasma was collected, and stored at -80 °C. Plasma of each time point was taken, 10 times the amount of 50% methanol acetonitrile solution containing internal standard was added, and mixed by vortex for 5 min, centrifuged at 18000 rpm at 4 °C for 10 min, and the supernatant was taken directly for LC-MS/MS analysis. The main pharmacokinetic parameters were analyzed using WinNonlin8.2 software for non compartmental model analysis. Table 3: pharmacokinetic test in rats results of test compounds

CYP1A2 = target: T1, CYP1A2 (Homo sapiens, UniProt P05177); assay: Cytochrome P450 inhibition in human liver microsomes
T1 sequence (P05177 1-516): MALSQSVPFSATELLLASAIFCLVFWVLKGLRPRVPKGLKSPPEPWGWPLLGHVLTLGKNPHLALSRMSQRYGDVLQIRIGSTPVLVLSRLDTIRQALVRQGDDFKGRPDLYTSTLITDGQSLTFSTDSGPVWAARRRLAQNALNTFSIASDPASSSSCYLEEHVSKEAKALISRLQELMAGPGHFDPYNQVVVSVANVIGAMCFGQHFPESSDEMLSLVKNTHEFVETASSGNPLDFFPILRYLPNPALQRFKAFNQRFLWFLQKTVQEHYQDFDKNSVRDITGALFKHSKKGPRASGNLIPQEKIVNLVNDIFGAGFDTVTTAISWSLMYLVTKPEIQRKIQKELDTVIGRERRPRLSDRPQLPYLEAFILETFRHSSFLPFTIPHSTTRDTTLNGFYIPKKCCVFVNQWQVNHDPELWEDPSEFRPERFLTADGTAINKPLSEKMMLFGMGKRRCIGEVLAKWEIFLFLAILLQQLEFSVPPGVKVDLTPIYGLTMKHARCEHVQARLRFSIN
Protocol: as §3, §6, §7, §8
(§11) (a) 30 µL test sample/positive control inhibitor working solution or 30 µL blank solvent working solution per well were transferred into a 96 well plate, and 15 µL substrate working solution of different enzyme subtypes transferred into each well, and mixed evenly. (b) The above incubation plates and 4 x NADPH working solution were preheated at 37 °C for 5 min. (c) 15 µL preheated 4 × NADPH working solution per well was transferred into the incubation plate, and the reaction initiated, and continued to be incubated at 37 °C.
as §10

CYP2C19 = CYP2C19 (Homo sapiens, UniProt P33261); assay: as above
Protocol: as §3, §6, §7, §8, §11, §10

CYP2C9 = CYP2C9 (Homo sapiens, UniProt P11712); assay: as above
Sequence of CYP2C9 (P11712 whole entry): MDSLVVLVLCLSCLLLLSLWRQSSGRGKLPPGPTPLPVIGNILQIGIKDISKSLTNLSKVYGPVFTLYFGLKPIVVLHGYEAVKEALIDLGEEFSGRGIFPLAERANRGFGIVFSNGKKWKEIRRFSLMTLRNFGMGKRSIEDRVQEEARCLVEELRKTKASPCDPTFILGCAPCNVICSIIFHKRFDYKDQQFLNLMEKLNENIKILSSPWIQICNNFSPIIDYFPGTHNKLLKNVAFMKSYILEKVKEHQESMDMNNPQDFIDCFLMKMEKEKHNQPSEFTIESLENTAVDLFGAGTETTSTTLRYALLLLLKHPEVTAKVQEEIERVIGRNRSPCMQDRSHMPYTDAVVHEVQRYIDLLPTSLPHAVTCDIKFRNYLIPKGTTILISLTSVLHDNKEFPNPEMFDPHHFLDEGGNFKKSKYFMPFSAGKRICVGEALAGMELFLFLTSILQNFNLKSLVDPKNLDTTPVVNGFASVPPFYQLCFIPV
Protocol: as §3, §6, §7, §8, §11, §10

Sequence of CYP3A4 (P08684 whole entry): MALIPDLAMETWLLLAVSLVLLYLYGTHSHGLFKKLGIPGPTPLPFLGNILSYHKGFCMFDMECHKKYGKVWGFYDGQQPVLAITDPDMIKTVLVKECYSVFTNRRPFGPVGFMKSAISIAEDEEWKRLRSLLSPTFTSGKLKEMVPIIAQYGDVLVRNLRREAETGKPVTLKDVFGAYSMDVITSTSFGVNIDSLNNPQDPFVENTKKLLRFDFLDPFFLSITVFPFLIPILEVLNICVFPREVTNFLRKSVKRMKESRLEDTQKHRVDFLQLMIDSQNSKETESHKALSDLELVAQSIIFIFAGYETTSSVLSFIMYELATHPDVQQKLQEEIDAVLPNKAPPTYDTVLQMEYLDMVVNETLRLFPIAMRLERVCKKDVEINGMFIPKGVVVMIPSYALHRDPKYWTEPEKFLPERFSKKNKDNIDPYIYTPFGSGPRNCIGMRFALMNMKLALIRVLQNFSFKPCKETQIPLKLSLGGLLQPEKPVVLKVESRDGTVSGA
Sequence of CYP2D6 (P10635 whole entry): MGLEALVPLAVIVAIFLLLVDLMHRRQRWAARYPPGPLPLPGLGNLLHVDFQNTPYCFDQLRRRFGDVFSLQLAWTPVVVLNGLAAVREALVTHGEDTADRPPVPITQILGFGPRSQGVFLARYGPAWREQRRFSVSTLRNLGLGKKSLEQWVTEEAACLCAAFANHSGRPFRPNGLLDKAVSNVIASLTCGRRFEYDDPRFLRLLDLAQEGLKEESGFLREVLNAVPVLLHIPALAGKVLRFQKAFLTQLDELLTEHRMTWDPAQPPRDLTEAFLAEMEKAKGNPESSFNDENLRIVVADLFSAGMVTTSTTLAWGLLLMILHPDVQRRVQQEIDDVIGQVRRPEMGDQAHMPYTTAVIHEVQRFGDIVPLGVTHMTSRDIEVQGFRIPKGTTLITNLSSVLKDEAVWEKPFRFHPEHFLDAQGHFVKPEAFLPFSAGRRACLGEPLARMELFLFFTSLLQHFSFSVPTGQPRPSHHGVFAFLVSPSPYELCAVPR
Sequence of Ba/F3-TEL-FGFR1 (P11362 478-767 limits assumed, one chain of several): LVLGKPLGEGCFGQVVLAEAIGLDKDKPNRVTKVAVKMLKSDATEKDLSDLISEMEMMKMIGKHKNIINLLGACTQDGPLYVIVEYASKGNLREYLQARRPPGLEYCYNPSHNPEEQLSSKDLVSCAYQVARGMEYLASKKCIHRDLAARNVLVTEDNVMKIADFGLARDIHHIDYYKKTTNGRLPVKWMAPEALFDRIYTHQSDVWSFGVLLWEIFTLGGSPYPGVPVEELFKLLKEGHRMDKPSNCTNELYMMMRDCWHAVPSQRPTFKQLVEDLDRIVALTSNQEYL
Sequence of Ba/F3-TEL-FGFR2 (P21802 481-770 limits assumed, one chain of several): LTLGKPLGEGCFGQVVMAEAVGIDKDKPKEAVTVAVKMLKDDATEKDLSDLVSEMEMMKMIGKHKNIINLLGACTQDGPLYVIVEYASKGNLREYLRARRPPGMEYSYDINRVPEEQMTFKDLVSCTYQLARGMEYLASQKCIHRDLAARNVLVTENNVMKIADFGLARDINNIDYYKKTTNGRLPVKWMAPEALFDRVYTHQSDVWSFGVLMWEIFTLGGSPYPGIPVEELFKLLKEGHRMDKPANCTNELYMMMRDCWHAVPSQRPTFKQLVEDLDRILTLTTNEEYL
Sequence of Ba/F3-TEL-FGFR3 (P22607 472-761 limits assumed, one chain of several): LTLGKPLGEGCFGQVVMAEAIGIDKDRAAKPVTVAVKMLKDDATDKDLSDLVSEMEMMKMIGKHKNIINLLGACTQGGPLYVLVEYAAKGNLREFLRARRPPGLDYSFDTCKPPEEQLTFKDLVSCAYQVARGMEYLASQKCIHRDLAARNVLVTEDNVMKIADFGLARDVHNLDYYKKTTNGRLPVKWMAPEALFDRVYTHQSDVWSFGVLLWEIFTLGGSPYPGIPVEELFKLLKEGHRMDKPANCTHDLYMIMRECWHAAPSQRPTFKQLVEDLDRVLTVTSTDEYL
Sequence of CYP2C19 (P33261 whole entry): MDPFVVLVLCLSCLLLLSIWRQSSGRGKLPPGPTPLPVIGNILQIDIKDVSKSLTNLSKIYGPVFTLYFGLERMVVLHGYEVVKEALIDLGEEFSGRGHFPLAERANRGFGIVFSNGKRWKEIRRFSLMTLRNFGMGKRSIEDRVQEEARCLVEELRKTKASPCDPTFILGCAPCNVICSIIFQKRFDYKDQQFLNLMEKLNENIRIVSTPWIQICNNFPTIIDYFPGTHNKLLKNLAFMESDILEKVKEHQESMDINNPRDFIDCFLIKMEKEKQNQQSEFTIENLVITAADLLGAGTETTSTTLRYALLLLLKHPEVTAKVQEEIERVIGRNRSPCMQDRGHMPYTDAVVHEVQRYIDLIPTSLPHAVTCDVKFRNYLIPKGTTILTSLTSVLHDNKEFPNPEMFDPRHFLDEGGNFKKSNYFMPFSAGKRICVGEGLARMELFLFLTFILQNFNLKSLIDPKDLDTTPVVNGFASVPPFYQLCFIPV

Compound: C=C(C)C(=O)Nc1ccc(-c2c(-c3ccc(N=S4(=O)CCCCC4)cc3)c3c(N)ncnc3n2C)cc1 [Compound 4, N-(4-(4-amino-7-methyl-5-(4-(1-oxotetrahydro-2H-1λ^6-thiopyran-1-imino)phenyl) -7H-pyrrolo [2,3-d]pyrimidin-6-yl)phenyl) methacrylamide]
CLint scaled at 1 µM [1]: 14.6 mL/min/kg
half-life at 1 µM [1]: 85.6 min
Remaining percentage of compound after 60 min of incubation (%) ([1]; 60 min): 61.6%
IC50 (Ba/F3-TEL-FGFR2): 9.9 nM
IC50 (Ba/F3-TEL-FGFR1): 2370 nM
IC50 (Ba/F3-TEL-FGFR3): 3360 nM

IC50 (CYP3A4): 13.5 µM
IC50 (CYP2D6): 24.6 µM
Compound: C=C(C)C(=O)Nc1ccc(-c2c(-c3ccc(N=S(=O)(CC)CC)c(F)c3)c3c(N)ncnc3n2C)cc1 [Compound 9, N-(4-(4-amino-5-(4-(diethyl (oxo) 1 λ^6-sulfanylidene) -3-fluorophenyl) -7-methyl 7H-pyrrolo [2,3-d]pyrimidin-6-yl) - phenyl) methacrylamide]
IC50 (Ba/F3-TEL-FGFR2): 14.9 nM

IC50 (SNU16 cells): 2.4 nM
Remaining percentage of compound after 60 min of incubation (%) [2]: 24.45%
hepatocyte CLint at 1 µM ([2]; rat liver cells (cryopreserved hepatocytes in suspension), read-out: in vitro CLint (µL/min/10^6 cells)): 48.4 µL/min/1e6 cells
half-life at 1 µM ([2]; rat liver cells (cryopreserved hepatocytes in suspension), read-out: in vitro t1/2): 28.6 min
Compound: C=C(C)C(=O)Nc1ccc(-c2c(-c3ccc(N=S4(=O)CCCC4)c(F)c3)c3c(N)ncnc3n2C)c(F)c1 [Compound 23, N-(4-(4-amino-5-(3-fluoro-4-((1-oxotetrahydro-1 λ^6-thiophene-1-ylidene)amino)phenyl) -7-methyl-7H-pyrrolo [2,3-d]pyrimidin-6-yl) -3-fluorophenyl) methacrylamide]
IC50 (A204 cells): 618 nM
IC50 (Ba/F3-TEL-FGFR2): 0.7 nM
IC50 (Ba/F3-TEL-FGFR1): 568 nM

AUC(0-t) ([3]; male, SD): 778 ng·h/mL
Cmax ([3]; male, SD): 306 ng/mL
Tmax ([3]; male, SD): 25.2 min
half-life ([3]; male, SD): 79.2 min
IC50 (CYP3A4): 19.2 µM
IC50 (CYP2D6): 9.52 µM
Compound: C=C(C)C(=O)Nc1ccc(-c2c(-c3ccc(N=S4(=O)CCCC4)c(F)c3)c3c(N)ncnc3n2C)cc1 [Compound 33, N-(4-(4-amino-5-(3-fluoro-4-((1-oxotetrahydro-1 λ^6-thiophene-1-ylidene)amino)phenyl) -7-methyl-7H-pyrrolo [2,3-d]pyrimidin-6-yl)phenyl) methacrylamide]
IC50 (Ba/F3-TEL-FGFR2): 11.2 nM
IC50 (Ba/F3-TEL-FGFR1): 2310 nM
IC50 (Ba/F3-TEL-FGFR3): 1290 nM

Compound: C=C(C)C(=O)Nc1ccc(-c2c(-c3ccc(N=S4(=O)CCC4)c(F)c3)c3c(N)ncnc3n2C)cc1 [Compound 56]
IC50 (CYP3A4): 13.2 µM
IC50 (CYP2D6): 5.54 µM
IC50 (Ba/F3-TEL-FGFR2): 12.6 nM

Compound: C=C(C)C(=O)Nc1ccc(-c2c(-c3ccc(N=S(=O)(CC)CC)cc3)c3c(N)ncnc3n2C)c(F)c1 [Compound 58]
AUC(0-t) [3]: 1420 ng·h/mL
Cmax [3]: 604 ng/mL
Tmax [3]: 30 min
half-life [3]: 191 min
IC50 (A204 cells): 1270 nM
IC50 (SNU16 cells): 9.52 nM
IC50 (CYP3A4): > 10 µM
IC50 (CYP2D6): 9.81 µM
IC50 (Ba/F3-TEL-FGFR2): 3 nM
IC50 (CYP1A2): > 10 µM
IC50 (CYP2C19): 5.42 µM
IC50 (CYP2C9): 29.7 µM
IC50 (Ba/F3-TEL-FGFR1): 2030 nM
IC50 (Ba/F3-TEL-FGFR3): 442 nM

Compound: [2H]C([2H])([2H])n1c(-c2ccc(NC(=O)C(=C)C)cc2F)c(-c2ccc(N=S3(=O)CCCC3)cc2)c2c(N)ncnc21 [Compound 83, N-(4-(4-amino-7-(methyl-d3)-5-(4-(1-oxotetrahydro-1 λ^6-thiophene-1-imino)phenyl)-7H-pyrrolo[2,3-d]pyrimidin-6-yl)-3-fluorophenyl)methacrylamide]
AUC(0-t) [3]: 1480 ng·h/mL
Cmax [3]: 414 ng/mL
Tmax [3]: 19.8 min
half-life [3]: 112 min
IC50 (CYP3A4): 11.6 µM
hepatocyte CLint ([2]; hepatocytes, read-out: in vitro CLint (µL/min/10^6 cells)): 37.3 µL/min/1e6 cells
half-life ([2]; hepatocytes, read-out: in vitro t1/2): 37.1 min
Remaining percentage of compound after 60 min of incubation (%) [2]: 35.86%
IC50 (CYP2D6): 8.77 µM
IC50 (Ba/F3-TEL-FGFR2): 1.1 nM
IC50 (CYP1A2): > 10 µM
IC50 (CYP2C19): 14.1 µM
IC50 (CYP2C9): 14.4 µM
IC50 (Ba/F3-TEL-FGFR1): 661 nM
IC50 (Ba/F3-TEL-FGFR3): 319 nM
